Series [1] relates to MES-SA/Dx5 cell line. Description: Cytotoxicity, PrestoBlue cell viability assay, MES-SA/Dx5. It is filed as cell-based. Particulars: Homo sapiens. The protocol:
(§1) The human uterine sarcoma cell line MES-SA and its doxorubicin resistant counterpart MES-SA/Dx5 were obtained from ATCC (MES-SA: No. CRL-1976™, MES-SA-Dx5: No. CRL-1977™). MES-SA/Dx5 cells express high levels of P-gp, and therefore are multidrug resistant (MDR). Cells were cultured in DMEM supplemented with 10% FBS, 5 mmol/L glutamine and 50 unit/mL penicillin and streptomycin (Life Technologies).
(§2) Cell survival was measured by the PrestoBlue® Cell Viability Reagent (Life Technologies, USA). Cells were seeded in 100 μl medium at a density of 5000 cells/well in 96-well plates; the serially diluted drug was added the following day. Cells were then incubated for 72 hours at 37° C. in 5% CO2; the drug containing medium was removed, and the PrestoBlue® reagent was added according to the manufacturer's instructions. Fluorescence of the cells was measured by a Perkin Elmer EnSpire multimode plate reader or Perkin Elmer Victor X3 microplate reader. Data were background corrected and normalized to untreated cells. Curves were fitted with the help of Prism software using the sigmoidal dose-response model. Curve fit statistics were used to determine IC50 values. Differences between the IC50 values of the respective cell lines were analyzed by two-sided […] unpaired Student's t test and results were considered statistically significant at a P value of <0.05 (*) or 0.01 (**).

Series [2] relates to MES-SA and MES-SA/Dx5 cells. In words: Selective toxicity in the presence of the P-gp inhibitor tariquidar. It is filed as cell-based, human. Particulars: for SR (TQ): selectivity ratio in the presence of tariquidar (1 μM); for Selective toxicity in the presence of P-gp inhibitors: tariquidar. The protocol: In the presence of tariquidar (an inhibitor of P-gp function), the toxicity of the compounds selectively diminishes in multidrug-resistant MES-SA/Dx5 cells, while the toxicity is unchanged against parental MESSA cells, which is reflected by a decrease in the selectivity ratio (SR (TQ)).
To investigate the contribution of P-glycoprotein to the cytotoxic effect of a compound, cell survival was measured in the presence of the P-glycoprotein inhibitor tariquidar (1 μM). Tariquidar (CAS 206873-63-4) can be obtained e.g. from Selleck, Houston, USA.

The subject of series [3] is A431 and A431-B1 cell lines. Description: Selective toxicity in A431 and A431-B1 cell lines. It is filed as cell-based, human. As to conditions: A431 versus P-gp-transfected A431-B1. The method, then: as §2
(§3) Data on selective toxicity (expressed as Selectivity Ratio, SR) in two MDR models engineered by retroviral transfection of P-glycoprotein (A431/A431-B1 and MDCK II/MDCK II B1 cell lines) are presented in Table 3 and Table 4.
(§4) A431 is a human epidermoid carcinoma cell line. Its derivative, the A431-B1 cell line expresses P-gp due to retroviral transfection of the mdr1 gene Türk, D. et al (Türk, D. et al., 2009). MDCK II is a canine kidney cell line. MDCK II B1 was created by inserting the mdr1 gene with transposons [Pape V F S et al. 2015] Both cell express P-gp stably, and show a stable MDR phenotype. Culture conditions were identical as in the case of MES-SA cells.

Series [4] has as its system MES-SA cell line. In words: Cytotoxicity, PrestoBlue cell viability assay, parental MES-SA. It is filed as cell-based. Particulars: Homo sapiens; parental MES-SA cell line (Table 2a). The protocol:
as §1, §2

For series [5], the system named is P-gp-expressing MES-SA/Dx5 cells. In words: P-gp switch assay (Calcein AM). It is filed as cell-based, human. As to conditions: for Fraction of P-gp-negative cells (P3) in the population / Fraction of P-gp-positive cells (P4) in the population: MES-SA/Dx5, single dose at IC20 (killing 80% of the cells), surviving population at 80% confluence, Calcein AM; for Loss of P-gp expression in MES-SA/Dx5 cells: single treatment (FIG. 1, Table 6). The method, then:
One million P-gp-expressing MES-SA/Dx5 cells were plated in a T25 cell culture flask. After 24 hours the compound of interest was added directly to the cells at a concentration corresponding to the IC20 value (killing 80% of the cells). After 5 days the culture media was removed, the cells were washed with PBS and the culture medium was exchanged. Cells were monitored daily and the recovery was recorded. The medium was changed every 5 days until the confluence of the cells reached 80%. At 80% confluence the cells were removed by gentle trypsinization, counted by an automated cell counter and stained with Calcein AM, a cellular dye able to detect the function of P-gp (Homolya 1993). P-gp-positivity was evaluated based on the ability of P-gp-expressing cells to extrude Calcein AM.

In series [6] the test system is MDCK II and MDCK II B1 cell lines. In words: Selective toxicity towards MDCK II and MDCK II B1 cell lines. It is filed as cell-based, canine. As to conditions: MDCK II versus MDCK II B1. The method, then:
as §2, §3, §4

For series [7], the system named is MES-SA and multidrug-resistant MES-SA/Dx5 cell line. Description: Selective toxicity (ratio of IC50 in MES-SA to IC50 in MES-SA/Dx5) and activity index. It is filed as cell-based, human.
Excerpt: Compounds having P-gp potentiated MDR-selective activity can be characterized by their inhibitory concentration (IC) with regard to a specific cancer cell line. Usually the IC value is given at a certain percentage ratio of non-inhibited molecules or surviving cells. For example an IC20 value of a compound on a cell line means that at this inhibitory concentration of the compound 80% of the cells are killed whereas 20% of the cells are still viable. A further characteristic of MDR-selective drugs is the selectivity ratio (SR), which is the ratio of the IC value measured in a non-multidrug resistant cell line to (i.e. divided by) the IC value measured in the corresponding transformed, multidrug-resistant cell line. The inverse value, the resistance ratio (RR) is calculated as the ratio of a compound's IC value against a multidrug resistant cell line divided by the parallel IC value of the same compound against a control non-multidrug resistant cell line. The Activity Index (AI) is calculated here as the ratio of the compound's selectivity ratio (SR) and the compound's IC50 value against the resistant cell. The AI reflects the level of simultaneous toxicity and selectivity towards multidrug-resistant cancer cells.
as §1, §2
Selectivity towards multidrug-resistant cells is expressed as the ratio of the IC50 value measured in the parental MES-SA and multidrug-resistant MES-SA/Dx5 cell line (Selectivity Ratio, SR).
A novel characteristic of the compounds presented in this invention is that they exert their selective cytotoxicity at low IC50 values. Simultaneous toxicity and selectivity towards multidrug-resistant cancer cells is reflected by the Activity Index (AI) of the compounds, which is the ratio of the selectivity ratio (SR) and the IC50 value on the resistant cell line.

The conditions of series [8]: WO2010138686 and Türk et al. 2009; cited from earlier work.
The subject of series [9] is MES-SA/Dx5 cells. Description: Sensitivity of MES-SA/Dx5 cells to doxorubicin after a single treatment. It is filed as cell-based, human. Particulars: after treatment with a single dose (FIG. 3). The source says:
The above treatment with compounds of the general Formula I results in a new, stable phenotype, with the complete resensitization of cells to conventional chemotherapy consisting of P-glycoprotein substrates such as doxorubicin (FIG. 3).
Curves show the sensitivity of MES-SA/Dx5 cells (P-gp overexpressing cell line established from MES-SA) to doxorubicin before and after treatment with a single dose of a state of the art compound (NSC693872) and two compounds relating to this invention (Example compounds No. 9 and No. 17). The sensitivity of MES-SA cells is shown as a reference (P-gp-negative parental cell line). […] (Values indicate the IC50 values (μM) derived from the cytotoxicity curves).

Series [10] deals with ABCB1-overexpressing and parental HEK293 cells. Particulars: cited from earlier work.
The subject of series [11] is primary cells from doxorubicin resistant brca1-/-/p53-/- spontaneous mouse mammary carcinoma. In words: Calcein assay of functional P-gp in primary tumor cells from doxorubicin resistant mammary carcinoma. It is filed as cell-based. As to conditions: single treatment, calcein assay (FIG. 4D). The source says:
Tumor pieces derived from Brca1−/−;p53−/− FVB mouse mammary tumors were transplanted orthotopically into the mammary fat pad of wild type FVB mice.
As described by Rottenberg et al. (Pajic et al. 2009), treatment with several cycles of the maximum tolerable dose of doxorubicin invariably lead to drug resistance mediated by the moderate upregulation of Mdr1a and/or Mdr1b (FIG. 4A). Primary cultures from resistant tumors were established. In just 10 passages the culture was depleted of stromal components (FIG. 4B).
Functional expression of P-gp in the primary cells was evaluated by the calcein assay.

Where [12] appears, read: multidrug-resistant MES-SA/Dx5 cell line (Table 2a), read-out: IC50 (nM) in MES-SA/Dx5 cell line.
Setting [13] is: MES-SA / MES-SA/Dx5, without tariquidar (Table 5).
[14] abbreviates: MES-SA/Dx5 (Table 2b), read-out: IC50 (μM) Dx5.
Setting [15] is: Mes-sa/Dx5 cell line, PrestoBlue assay, 72 hours (Table 1), read-out: IC50.

Where two headings read alike, the source gives them in different places.

One may read the melting point as the temperature of the solid-liquid transition. Regarding `C/C(=N\Nc1ccc2ccc(CN3CCCCC3)c(O)c2n1)c1ccccn1` [Example 3, (E/Z)-7-(Piperidin-1ylmethyl)-2-(2-(1-(pyridin-2-yl)ethylidene)hydrazinyl)quinolin-8-ol], the melting point was in the range of 69 to 71 °C. The IC50 in [1] (setting [12]) is 727 nM. Also, the “SR (TQ)” value in [2] amounted to 1.5. Besides, the “Selectivity Ratio (SR) (A431/A431-B1)” value in [3] was 14.4. For the same molecule, the IC50 in series [4] was 11300 nM. Moreover, in [5], the “Fraction of P-gp-negative cells (P3) in the population” value (“Fraction of P-gp-negative cells (P3)” below) was 88.6% and the “Fraction of P-gp-positive cells (P4) in the population” value (“Fraction of P-gp-positive cells (P4)” for short) is 11.40%. Besides, the “Selectivity Ratio (SR) (MDCK II/MDCK II B1)” value in [6] is 9.5. Besides, the SR in [7] (setting [13]) is recorded as 16.2.

With `CCN(CC)Cc1ccc2cccnc2c1O` [NSC693872, 7-(N,N-diethylaminomethyl)quinolin-8-ol, reference compound], the IC50 was found to be 1580 nM in [1] (setting [14]), 1580 nM in series [1] (setting [15]), 1580 nM in series [1] (setting [12]) and 7810 nM in series [4]. Moreover, the “SR (TQ)” value in [2] came out at 2.6. In addition, the “Selective toxicity in the presence of P-gp inhibitors” value in series [2] is “retain a partial selective toxicity”. The “Selectivity Ratio (SR) (A431/A431-B1)” value in series [3] was found to be 1.9. Further, the “Fraction of P-gp-negative cells (P3)” value in series [5] was 7.8%. The “Fraction of P-gp-positive cells (P4)” value in series [5] was 92.2%. Besides, the “Loss of P-gp expression in MES-SA/Dx5 cells” value in series [5] is recorded as “insignificant loss”. For the same molecule, the selectivity in series [8] is reported as around 3.90. For the same molecule, the “Selectivity Ratio (SR) (MDCK II/MDCK II B1)” value in series [6] stood at 3.1. Further, the SR in [7] (MES-SA / MES-SA/Dx5 (Table 2b)) and in [7] (setting [13]) was 4.9 throughout. The “Resensitization of MES-SA/Dx5 cells to doxorubicin” value (from here on “Resensitization of MES-SA/Dx5 cells”) in series [9] is listed as “not sufficient to influence the resistance of the cells to doxorubicin”.

For `Cl.Oc1c(CN2CCCC2)ccc2cccnc12` [NSC693871, 7-(pyrrolidin-1-ylmethyl)quinolin-8-ol hydrochloride, reference compound], the IC50 in [1] (setting [14]) worked out at 1470 nM; in series [1] (setting [15]), 1470 nM; in [1] (setting [12]), 1470 nM; in [4], 6250 nM. In addition, the “SR (TQ)” value in series [2] was found to be 1.4. Besides, the “Selective toxicity in the presence of P-gp inhibitors” value in series [2] is on record as “retain a partial selective toxicity”. Moreover, the selectivity is listed as around 10 in series [10] and “about 8.48” in [8]. Moreover, in series [3], the “Selectivity Ratio (SR) (A431/A431-B1)” value came out at 3.8. The “Fraction of P-gp-negative cells (P3)” value in series [5] is recorded as 9.1%. Also, the “Fraction of P-gp-positive cells (P4)” value in [5] is 90.9%. The “Loss of P-gp expression in MES-SA/Dx5 cells” value in series [5] was “insignificant loss”. The “Selectivity Ratio (SR) (MDCK II/MDCK II B1)” value in series [6] stood at 4.4. Further, the SR in series [7] (MES-SA / MES-SA/Dx5 (Table 2b)) and in series [7] (setting [13]) was 4.2 each time.

`COc1ccc(CNCc2cc(Br)c3cccnc3c2O)c(OC)c1` [Example 9, 5-Bromo-7-(((2,4-dimethoxybenzyl)amino)methyl)quinolin-8-ol] showed a melting point of 146 to 148 °C. Further, the IC50 in series [1] (setting [14]) stood at 120 nM. Moreover, the IC50 in series [1] (setting [15]) was 118 nM. Moreover, the IC50 in series [1] (setting [12]) was 118 nM. The “SR (TQ)” value in series [2] is listed as 1.8. Moreover, the IC50 in [4] stood at 2260 nM. In [5], the “Fraction of P-gp-negative cells (P3)” value is listed as 99.0% and the “Fraction of P-gp-positive cells (P4)” value is reported as 1.0%. The “Selectivity Ratio (SR) (MDCK II/MDCK II B1)” value in [6] came out at 16.8. Besides, the “P-gp efflux capacity of primary tumor cells” value in series [11] is given as “efflux capacity of the cells could be eradicated by a single treatment”. Moreover, in series [7] (MES-SA / MES-SA/Dx5 (Table 2b)), the SR turned out to be 20.4. In addition, in series [7] (setting [13]), the SR turned out to be 20.4. Further, the “Resensitization of MES-SA/Dx5 cells” value in series [9] was “sufficient to resensitize MES-SA/Dx5 cells to doxorubicin”.

Regarding `Oc1c(C2NCCc3sccc32)cc(Cl)c2cccnc12` (stereo not drawn) [Example 17, 5-Chloro-7-(4,5,6,7-tetrahydrothieno[3,2-c]pyridin-4-yl)quinolin-8-ol], the “Selectivity Ratio (SR) (A431/A431-B1)” value in [3] amounted to 12.6. Besides, in [9], the “Resensitization of MES-SA/Dx5 cells” value is “sufficient to resensitize MES-SA/Dx5 cells to doxorubicin”.
